54 molecules from US8017611B2, “Pyridine and pyrazine derivatives -083” (AstraZeneca AB, priority 2007, dated 2011) can be followed below.

This assay addresses T1, recombinant Axl tyrosine kinase (Homo sapiens, UniProt P30530).
T1 construct: encompassing amino acids 473 to 894 of Axl; GST (N); made in house; host or cells: SF126 insect cells
T1 sequence (P30530 473-894): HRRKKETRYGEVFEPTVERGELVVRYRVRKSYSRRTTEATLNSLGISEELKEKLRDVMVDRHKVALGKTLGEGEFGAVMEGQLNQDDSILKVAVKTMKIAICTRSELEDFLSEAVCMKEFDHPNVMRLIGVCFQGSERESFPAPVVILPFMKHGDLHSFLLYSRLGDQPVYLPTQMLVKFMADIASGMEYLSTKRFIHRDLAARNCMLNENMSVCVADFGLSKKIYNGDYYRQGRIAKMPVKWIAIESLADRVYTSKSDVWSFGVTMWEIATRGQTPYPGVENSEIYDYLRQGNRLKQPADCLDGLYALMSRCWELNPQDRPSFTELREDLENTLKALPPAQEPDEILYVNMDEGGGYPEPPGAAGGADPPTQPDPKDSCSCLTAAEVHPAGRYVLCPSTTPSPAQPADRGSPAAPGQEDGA
Nature of the assay: In vitro Axl kinase assay (AlphaScreen), Test (a). The format is biochemical. The conditions noted are these: test compound at 1 μM; first value quoted.
Take `CN(C)C1CCC(NC(=O)c2ccc(-c3cnc(N)c(-c4nc5cccnc5o4)c3)cc2)CC1` (stereo not drawn) [Example 45A.24]: the “% Axl tyrosine kinase inhibition at 1 μM concentration” value (“% Axl tyrosine kinase inhibition” below) was 95.8%. `CN1CCC(CNC(=O)c2ccc(-c3cnc(N)c(-c4nc5cccnc5o4)c3)cc2)CC1` [Example 45A.25]: the “% Axl tyrosine kinase inhibition” value is listed as 97.8%. For `CN1CCCCC1CNC(=O)c1ccc(-c2cnc(N)c(-c3nc4cccnc4o3)c2)cc1` (stereo not drawn) [Example 45A.26] the value was 99.6%; for `CN1CCC(CNC(=O)c2ccc(-c3cnc(N)c(-c4nc5cccnc5o4)c3)cc2)C1` (stereo not drawn) [Example 45A.27], 97.9%; for `CN1CCOC(CNC(=O)c2ccc(-c3cnc(N)c(-c4nc5cccnc5o4)c3)cc2)C1` (stereo not drawn) [Example 45A.28], 97.5%. For `Nc1ncc(-c2ccc(C(=O)N3CCCCC3CCN3CCCC3)cc2)cc1-c1nc2cccnc2o1` (stereo not drawn) [Example 45A.29], the “% Axl tyrosine kinase inhibition” value turned out to be 98.8%. With `CN1CC(NC(=O)c2ccc(-c3cnc(N)c(-c4nc5cccnc5o4)c3)cc2)C1` [Example 45A.30], the “% Axl tyrosine kinase inhibition” value was 97.4%.

Turning to `CN1CCC(N(C)C(=O)c2ccc(-c3cnc(N)c(-c4nc5cccnc5o4)c3)cc2)CC1` [Example 45A.31], the “% Axl tyrosine kinase inhibition” value was found to be 95.9%. For `Nc1ncc(-c2ccc(C(=O)NCCN3CCCCCC3)cc2)cc1-c1nc2cccnc2o1` [Example 45A.32] the value was 99.6%; for `CCN(CC)C1CCN(C(=O)c2ccc(-c3cnc(N)c(-c4nc5cccnc5o4)c3)cc2)C1` (stereo not drawn) [Example 45A.33], 97.7%. For `Nc1ncc(-c2ccc(C(=O)N[C@H]3CN4CCC3CC4)cc2)cc1-c1nc2cccnc2o1` [Example 45A.35] the value was 98.4%.

As for `Nc1ncc(-c2ccc(C(=O)NCCN3CCC(F)(F)C3)cc2)cc1-c1nc2cccnc2o1` [Example 45A.37], the “% Axl tyrosine kinase inhibition” value stood at 92.2%.

Take `Nc1ncc(-c2ccc(C(=O)NCCN3CC[C@H](F)C3)cc2)cc1-c1nc2cccnc2o1` [Example 45A.38]: the “% Axl tyrosine kinase inhibition” value was found to be 98.4%. As to `Nc1ncc(-c2ccc(C(=O)NCCCN3CC[C@@H](F)C3)cc2)cc1-c1nc2cccnc2o1` [Example 45A.39], the “% Axl tyrosine kinase inhibition” value stood at 98.4%. As for `Nc1ncc(-c2ccc(C(=O)NCCCN3CC[C@H](F)C3)cc2)cc1-c1nc2cccnc2o1` [Example 45A.40], the figure is 98.3%; as for `CN(C)C1(CNC(=O)c2ccc(-c3cnc(N)c(-c4nc5cccnc5o4)c3)cc2)CCCCC1` [Example 45A.41], 99.0%; as for `CC(C)N1CCC(CN(C)C(=O)c2ccc(-c3cnc(N)c(-c4nc5cccnc5o4)c3)cc2)C1` (stereo not drawn) [Example 45A.42], 99.3%. As for `CC(C)N1CCC[C@H]1CNC(=O)c1ccc(-c2cnc(N)c(-c3nc4cccnc4o3)c2)cc1` [Example 45A.43], the figure is 99.9%.

For the molecule `CN1CCC(NC(=O)c2ccc(-c3cnc(N)c(-c4nc5cccnc5o4)c3)cc2)C2CCCCC21` (stereo not drawn) [Example 45A.44], the “% Axl tyrosine kinase inhibition” value came to 99.3%. In the case of `C[C@@H]1CN(CCNC(=O)c2ccc(-c3cnc(N)c(-c4nc5cccnc5o4)c3)cc2)C[C@H](C)O1` [Example 45A.45], the “% Axl tyrosine kinase inhibition” value stood at 93.8%. Turning to `CC1CCN(CCCNC(=O)c2ccc(-c3cnc(N)c(-c4nc5cccnc5o4)c3)cc2)CC1` [Example 45A.46], the “% Axl tyrosine kinase inhibition” value came out at 99.1%. For `CCN1CCC(CNC(=O)c2ccc(-c3cnc(N)c(-c4nc5cccnc5o4)c3)cc2)CC1` [Example 45A.47], the “% Axl tyrosine kinase inhibition” value is 96.1%.

Regarding `CN(C)CCN(C)C(=O)c1ccc(-c2cnc(N)c(-c3nc4cccnc4o3)c2)cc1` [Example 45A.48], the “% Axl tyrosine kinase inhibition” value is given as 98.3%. On to `CN1CCN(C(=O)c2ccc(-c3cnc(N)c(-c4nc5cccnc5o4)c3)cc2)CC1` [Example 45A.49], for which the “% Axl tyrosine kinase inhibition” value stood at 96.1%. For `CN(C)CCN1CCN(C(=O)c2ccc(-c3cnc(N)c(-c4nc5cccnc5o4)c3)cc2)CC1` [Example 45A.50], the “% Axl tyrosine kinase inhibition” value is given as 93.7%. As to `Nc1ncc(-c2ccc(C(=O)NCCN3CCOCC3)cc2)cc1-c1nc2cccnc2o1` [Example 45A.51], the “% Axl tyrosine kinase inhibition” value is reported as 98.5%. For `Nc1ncc(-c2ccc(C(=O)N3CCC(N4CCCCC4)CC3)cc2)cc1-c1nc2cccnc2o1` [Example 45A.52] the value was 94.3%; for `Nc1ncc(-c2ccc(C(=O)NCCCn3ccnc3)cc2)cc1-c1nc2cccnc2o1` [Example 45A.53], 98.8%. As for `CN(C)CCCN(C)C(=O)c1ccc(-c2cnc(N)c(-c3nc4cccnc4o3)c2)cc1` [Example 45A.54], the figure is 97.8%; as for `Nc1ncc(-c2ccc(C(=O)NCCN3CCCC3)cc2)cc1-c1nc2cccnc2o1` [Example 45A.55], 98.9%; as for `Nc1ncc(-c2ccc(C(=O)NCCN3CCCCC3)cc2)cc1-c1nc2cccnc2o1` [Example 45A.56], 98.9%.

Regarding `Nc1ncc(-c2ccc(C(=O)NCCCN3CCOCC3)cc2)cc1-c1nc2cccnc2o1` [Example 45A.57], the “% Axl tyrosine kinase inhibition” value is reported as 96.9%. For `CN1CCN(CCCNC(=O)c2ccc(-c3cnc(N)c(-c4nc5cccnc5o4)c3)cc2)CC1` [Example 45A.58] the value was 97.0%; for `COCCN1CCN(C(=O)c2ccc(-c3cnc(N)c(-c4nc5cccnc5o4)c3)cc2)CC1` [Example 45A.59], 88.8%; for `Nc1ncc(-c2ccc(C(=O)N3CCN(Cc4ccccn4)CC3)cc2)cc1-c1nc2cccnc2o1` [Example 45A.60], 98.1%. As to `Nc1ncc(-c2ccc(C(=O)N3CCN(Cc4cccnc4)CC3)cc2)cc1-c1nc2cccnc2o1` [Example 45A.61], the “% Axl tyrosine kinase inhibition” value is recorded as 95.1%. As for `Nc1ncc(-c2ccc(C(=O)N3CCN(Cc4ccncc4)CC3)cc2)cc1-c1nc2cccnc2o1` [Example 45A.62], the figure is 97.3%. As for `Nc1ncc(-c2ccc(C(=O)N3CCC(N4CCCC4)CC3)cc2)cc1-c1nc2cccnc2o1` [Example 45A.63], the figure is 99.1%; as for `Nc1ncc(-c2ccc(C(=O)N3CCC(N4CCOCC4)CC3)cc2)cc1-c1nc2cccnc2o1` [Example 45A.64], 98.6%; as for `CN1CCCN(C(=O)c2ccc(-c3cnc(N)c(-c4nc5cccnc5o4)c3)cc2)CC1` [Example 45A.65], 98.3%. For the molecule `Nc1ncc(-c2ccc(C(=O)N3CCC[C@H]3CN3CCCC3)cc2)cc1-c1nc2cccnc2o1` [Example 45A.66], the “% Axl tyrosine kinase inhibition” value amounted to 99.9%. `CN(C)C(=O)CN1CCN(C(=O)c2ccc(-c3cnc(N)c(-c4nc5cccnc5o4)c3)cc2)CC1` [Example 45A.67]: the “% Axl tyrosine kinase inhibition” value was 96.8%.

Turning to `Nc1ncc(-c2ccc(C(=O)N3CCN(CCN4CCCC4)CC3)cc2)cc1-c1nc2cccnc2o1` [Example 45A.68], the “% Axl tyrosine kinase inhibition” value turned out to be 91.3%.

With `CN1CCC(NC(=O)c2ccc(-c3cnc(N)c(-c4nc5cccnc5o4)c3)cc2)CC1` [Example 45A.69], the “% Axl tyrosine kinase inhibition” value is given as 96.7%. Turning to `CN(CCN1CCCC1)C(=O)c1ccc(-c2cnc(N)c(-c3nc4cccnc4o3)c2)cc1` [Example 45A.70], the “% Axl tyrosine kinase inhibition” value was 98.8%.

On to `NC(=O)CCN1CCN(C(=O)c2ccc(-c3cnc(N)c(-c4nc5cccnc5o4)c3)cc2)CC1` [Example 45A.71], for which the “% Axl tyrosine kinase inhibition” value is listed as 93.7%.

With `CCN1CCCC1CNC(=O)c1ccc(-c2cnc(N)c(-c3nc4cccnc4o3)c2)cc1` (stereo not drawn) [Example 45A.72], the “% Axl tyrosine kinase inhibition” value was 99.6%. Take `CN1CCN(CCNC(=O)c2ccc(-c3cnc(N)c(-c4nc5cccnc5o4)c3)cc2)CC1` [Example 45A.73]: the “% Axl tyrosine kinase inhibition” value was determined as 96.0%. As for `Nc1ncc(-c2ccc(C(=O)N3CCN4CCCC4C3)cc2)cc1-c1nc2cccnc2o1` (stereo not drawn) [Example 45A.74], the figure is 99.9%. Take `CN(C)C(=O)[C@@H]1CCCN1C(=O)c1ccc(-c2cnc(N)c(-c3nc4cccnc4o3)c2)cc1` [Example 45A.75]: the “% Axl tyrosine kinase inhibition” value was 91.6%. For `CN(C)[C@@H]1CCN(C(=O)c2ccc(-c3cnc(N)c(-c4nc5cccnc5o4)c3)cc2)C1` [Example 45A.76] the value was 96.7%. Take `CN(C)[C@H]1CCN(C(=O)c2ccc(-c3cnc(N)c(-c4nc5cccnc5o4)c3)cc2)C1` [Example 45A.77]: the “% Axl tyrosine kinase inhibition” value is reported as 96.1%.

`NCC1CCN(C(=O)c2ccc(-c3cnc(N)c(-c4nc5cccnc5o4)c3)cc2)CC1` [Example 45A.78]: the “% Axl tyrosine kinase inhibition” value was found to be 97.7%. On to `Nc1ncc(-c2ccc(C(=O)N3CCC(N)C3)cc2)cc1-c1nc2cccnc2o1` (stereo not drawn) [Example 45A.79], for which the “% Axl tyrosine kinase inhibition” value was 99.0%.
